What was measured:
[1] = test system: DNA damage markers (γH2A.X, ATM, DNA-PKcs, p53, Chk2); test: Immunoblot of DNA damage markers, p53 and PARP in LNCaP cells; type: cell-based
Experimental: (§1) Samples for immunoblot analysis were prepared by plating LNCaP or DU145 cells at 1 million cells per 10 cm plate. Cells were allowed to adhere for 24-36 hr prior to incubation with compound. After the appropriate incubation time cells were washed once with ice cold PBS and harvested in ice cold 125 μL lysis buffer (50 mM Tris-HCl pH 7.4, 150 mM NaCl, 1 mM EDTA, 1% Triton X100) containing protease inhibitor cocktail (Roche), 1 mM PMSF (Sigma), and phosphatase inhibitors (Sigma). Samples were allowed incubate on ice for 10 min with vortexing once every 3 min. Cellular debris was pelleted by spinning at 14,000 rpm for 15 min to collect the supernatant. Samples were then quantified for protein content with the Bradford assay (Bio-rad) and boiled with 4× sample buffer (Li-Cor) for 5 min. Protein electrophoresis was performed in 4-20% precast Tris glycine SDS gels (Bio-rad) and transferred to PVDF membranes. Membrane blocking was done with Odyssey Blocking Buffer (Li-Cor). The following antibodies used to probe changes in protein levels or phosphorylation states: RBP1 (Santa Cruz Biotechnology, N20), p53 (Santa Cruz Biotechnology, DO1), phospho-Chk2-Thr68 (Cell Signaling Technology), Phospho-p53-Ser15 (Cell Signaling Technology), phosphor-H2A.X-Ser139 (Cell Signaling Technology), phosphor-ATM-Ser1981 (Abcam), phosphor-DNA-PKcs-Ser2056 (Abcam), and […] (Abcam). […]

[2] = test system: transcripts in DHT-stimulated LNCaP cells; test: Gene expression with Affymetrix Human Genome U133 Plus 2.0 arrays, DHT-stimulated LNCaP cells; type: cell-based
Experimental: LNCaP cells were plated in 12-well plates at a density of 80-100×10^3 cells per well. Media, polyamide treatments, and time courses were the same as described above. Bicalutamide was added 2 h before DHT stimulation. RNA was isolated as described in ref. 21. From this point, experiments were carried out at the Millard and Muriel Jacobs Gene Expression Facility at the California Institute of Technology. Labeled mRNA was hybridized to Affymetrix high-density Human Genome U133 Plus 2.0 arrays according to established protocols. Gene expression was analyzed by using Resolver (Rosetta Biosoftware, Seattle, Wash.). Data were uploaded to the Gene Expression Omnibus repository (accession no. GSE7708).
Global effects of polyamides 1 and 2 and bicalutamide on gene expression in DHT-stimulated LNCaP cells were monitored with Affymetrix (Santa Clara, Calif.) high-density Human Genome U133 Plus 2.0 arrays, which interrogate >50,000 transcripts.

[3] = test system: AR occupancy at the FKBP5 intronic enhancer; test: Chromatin immunoprecipitation with anti-AR, FKBP5 fifth intron enhancer; type: cell-based; settings: 10 μM
[4] = cited from earlier work
RNAP2 large subunit RPB1 = test: Immunoblot of RPB1 protein in LNCaP cells; type: cell-based
Experimental: as §1

[5] = test system: AR occupancy at the PSA promoter and enhancer; test: Chromatin immunoprecipitation with anti-AR, PSA promoter and enhancer; type: cell-based
Experimental: LNCaP cells were plated in 15-cm diameter plates at a density of 2×10^6 cells per plate. Media, polyamide treatment, time course, and DHT stimulation were the same as described above. After the 16-h DHT treatment, cells were treated with 1% formaldehyde for 10 min. Chromatin was isolated and sheared. Antibodies to AR (AR-20, Santa Cruz Biotechnology, Santa Cruz, Calif.) were used to immunoprecipitate AR-bound DNA fragments. Crosslinks were reversed, and PCRs using primers targeted to the regions of interest were used to assess enrichment of bound fragments as compared with mock-precipitated (no antibody) controls. PCRs were monitored with SYBR Green PCR Master Mix (Applied Biosystems) on an ABI 7300 instrument. Primer sequences and a more detailed experimental protocol are available upon request.

LNCaP cells = test: Cell viability WST-1 assay; type: cell-based; settings: LNCaP
Experimental: LNCaP cells were plated in clear bottom 96 well plates at 5,000-7,500 cells per well. The cells were allowed to adhere for 24-36 h before compounds were added in fresh media. Cell viability was determined by the WST-1 assay (Roche) for 77 and 85 after 24 h or 72 h incubation with cells. Cells in cytotoxicity rescue experiments were treated with 85 alone or with 3 μM for 24 h.
LNCaP cells were plated in clear bottom 96-well plates at 5,000-7,500 cells per well and allowed to adhere for 36-48 h. Compounds were then added in fresh media. Cell metabolic activity was determined by the WST-1 assay (Roche) after 72-h incubation with cells. Quantification was performed on a Perkin Elmer Victor 3 plate reader. Assays were performed in biological triplicates.

RPB1 mRNA = test: Quantitative RT-PCR of RPB1 transcript in LNCaP cells; type: cell-based; settings: 10 μM
Experimental: (§2) RNA was extracted using RNEasy columns (Qiagen) according to manufacturer's protocols. cDNA was generated from RNA by reverse transcriptase (Transcriptor First Strand cDNA kit, Roche). Quantitative real-time RT-PCR was performed using SYBR Green PCR Master Mix (Applied Biosystems) on an ABI 7300 instrument. mRNA was measured relative to B glucuronidase as an endogenous control.

[6] = Liver microsomal stability, human; settings: 1 μM, Human, 1 hr at 37° C., 1 mg/ml microsomes
p53 target genes = test: Quantitative RT-PCR of p53 target genes in LNCaP cells; type: cell-based
Experimental: as §2
The cells were then treated with 1, 3, and 10 μM of 78 for 72 h. Total cellular RNA was extracted using RNEasy columns (Qiagen) following the manufacturer's protocols. Isolated RNA was reverse transcribed with Transcriptor First Strand cDNA kit (Roche). Quantitative real-time PCR was performed using SYBR Green PCR Master Mix (Applied Biosystems) on an ABI 7300 instrument. Amplification of p21, IGFBP3, and GADD45A cDNA was measured relative to β-glucuronidase using previously published primers (24). Experiments were performed in biological replicates.

ARE of the PSA promoter = test: Quantitative DNase I footprint titration on pAR-PSA fragment; type: binding
Text: Plasmid pAR-PSA was constructed by inserting a 70-bp sequence from the PSA promoter containing the ARE into pUC19 plasmid. […] Detailed experimental protocols are reported elsewhere (44). The proximal PSA promoter contains the ARE [NT] ID NO:15) (FIG. 8A). […] However, 1 is observed to bind the sequence [NT]≈12 bp 5' to the ARE, which is an expected binding site for this molecule.

[7] = 10 μM, + DHT, relative to DHT-induced controls, p ≦ 0.01
[8] = relative to DHT-induced controls, + DHT

SMILES: CN(CCCNC(=O)c1cccc(C(=O)O)c1)CCCNC(=O)c1cc(NC(=O)c2cc(NC(=O)c3cc(NC(=O)c4nc(NC(=O)[C@H](N)CCNC(=O)c5cc(NC(=O)c6cc(NC(=O)c7cc(NC(=O)c8nccn8C)cn7C)cn6C)cn5C)cn4C)cn3C)cn2C)cn1C [Polyamide 1, ImPyPyPy-2-(R)H^2Nγ-ImPyPyPy-NHMe-IPA]
- cellular markers of DNA damage (phosphorylation) [1]: did not induce cellular markers of DNA damage
- p53 accumulation and PARP cleavage [1]: modest accumulation of p53 and PARP cleavage were observed
- Number of transcripts down-regulated (fold change ≦ −2.0) [2, 7]: 706
- Number of transcripts down-regulated (fold change ≦ −4.0) [2, 7]: 126
- Number of transcripts up-regulated (fold change ≧ 2.0) [2, 7]: 347
- Number of transcripts up-regulated (fold change ≧ 4.0) [2, 7]: 42
- number of transcripts affected by at least 2-fold ([2]; 10 μM, P≦0.01, vs DHT-induced controls): 1,053
- share of interrogated transcripts affected ([2]; 10 μM, at least 2-fold): less than 2%
- share of transcripts induced at least 4-fold by DHT whose expression is inhibited ([2]; LNCaP cells): ≈ 35%
- number of the 88 DHT-repressed transcripts derepressed at least 2-fold ([2]; P≦0.01): eight
- number of the 199 DHT-induced transcripts inhibited at least 2-fold ([2]; P≦0.01): 70
- Fold-change of FKBP5 [2, 8]: −3.1
- Fold-change of KLK2 [2, 8]: −2.4
- Fold-change of KLK3 (PSA) [2, 8]: −3.3
- Fold-change of TMPRSS2 [2, 8]: −2.3
- occupancy of AR at the FKBP5 intronic enhancer [3]: decreased occupancy
- animal toxicity after single subcutaneous administration ([4]; female C57BL/6J mice, 77 at 2.5 and 5 mg/kg, 80 at 2.3 and […]): did not adversely affect the animals
- weight loss ([4]; female mice, 10 mg/kg SC): greater than 15%
- doses without toxicity ([4]; mouse, in vivo): less than 10 mg/kg
- RPB1 protein level (RNAP2 large subunit RPB1): depletion of RPB1 in a time- and concentration-dependent manner
- occupancy of AR at the PSA promoter and enhancer ([5]; 1 μM as printed): decreased occupancy
- AR occupancy at the PSA promoter and enhancer ([5]; 10 μM, FIG. 9 legend): decreased
- cytotoxicity after 24 h treatment (LNCaP cells): minimal cytotoxicity is seen at 24 h
- expression of RPB1 mRNA (RPB1 mRNA): modestly increased
- Mean remaining parent NADPH-free [6]: 92.3%
- Mean remaining parent with NADPH [6]: 96.9%
- induction of p53 target genes (p53 target genes): induced expression of p53 genes
- binding at the other half-site of the ARE (ARE of the PSA promoter; 5′-AGTGCT-3′, single base pair mismatch site): Minimal binding
- Ka (ARE of the PSA promoter; ARE consensus half-site 5′-AGAACA-3′): 8.3±1.7×10^9 M^−1
- Ka (ARE of the PSA promoter; ARE half site 5′-AGAACA-3′, FIG. 8 legend): 8.3±1.7×10^9
- Kd (ARE of the PSA promoter; half-site of the ARE of the PSA promoter): subnanomolar

Reference: patent US20170260169A1, “INHIBITORS FOR STEROID RESPONSE ELEMENTS AND RNA POLYMERASE II AND RELATED METHODS” (priority 2007, published 2017)
